Data set [1] relates to HepG-2 cells. Further details: method as in Fayed et al., 2019. The note with it: ref Fayed et al., 2019; read-out: IC50, cytotoxic activity against HepG-2 cells; cited from earlier work.
Data set [2] concerns human liver carcinoma HepG2 cell line. The data set can be described thus: MTT cytotoxicity assay on liver cancer cells. The format is cell-based. The following applies: 24 h treatment. As for the experimental part:
Toward this, the HepG-2 cells were cultured and treated with tested compounds at different concentrations for 24 h and subsequently 3-(4,5-dimethylthiazol-2-yl)-2,5-diphenyltetrazolium bromide (MTT) dye was added. The colorimetric measurement was assessed using an ELISA plate reader at a wavelength of 570 nm.
Following this initial incubation period, the cells were exposed to varying concentrations of the synthesized compounds. The concentrations may have ranged from a lower to higher dose, depending on the experimental design. The molecules were dissolved in an appropriate solvent, DMSO, to obtain the desired concentrations. Control wells with no drug treatment were also included. […] The duration of the incubation may have varied depending on the specific experimental requirements. At the end of the 24-h treatment, (3-(4,5-dimethylthiazol-2-yl)-2,5-diphenyltetrazolium bromide) MTT dye was added to each well. MTT is a yellow tetrazolium salt that is utilized by metabolically active cells and converted into purple formazan crystals by mitochondrial enzymes in viable cells. […] DMSO is a common solvent used to dissolve the formazan crystals and extract the intracellular purple product. The plate was then subjected to colorimetric measurement using an ELISA plate reader at a wavelength of 570 nm. The intensity of the purple color is proportional to the number of viable cells and reflects the growth condition of the cells in each well. The results were analyzed by calculating the percentage of cell viability or cell growth inhibition compared to the control wells. […] The experiments were performed with at least three replicates for each concentration, and the entire experiment was repeated at least three times to ensure the reliability of the results.
(Tetrazolium assays rely on reduction of a dye to a coloured formazan, in cell work by metabolically active cells.)

Data set [3] has as its system HL-7702 normal cell line. The data set can be described thus: MTT cytotoxicity assay on normal liver cells. The format is cell-based. The note with it: Homo sapiens, L02, 24 h treatment. How it is done: Following this initial incubation period, the cells were exposed to varying concentrations of the synthesized compounds. The concentrations may have ranged from a lower to higher dose, depending on the experimental design. The molecules were dissolved in an appropriate solvent, DMSO, to obtain the desired concentrations. Control wells with no drug treatment were also included. […] The duration of the incubation may have varied depending on the specific experimental requirements. At the end of the 24-h treatment, (3-(4,5-dimethylthiazol-2-yl)-2,5-diphenyltetrazolium bromide) MTT dye was added to each well. MTT is a yellow tetrazolium salt that is utilized by metabolically active cells and converted into purple formazan crystals by mitochondrial enzymes in viable cells. […] DMSO is a common solvent used to dissolve the formazan crystals and extract the intracellular purple product. The plate was then subjected to colorimetric measurement using an ELISA plate reader at a wavelength of 570 nm. The intensity of the purple color is proportional to the number of viable cells and reflects the growth condition of the cells in each well. The results were analyzed by calculating the percentage of cell viability or cell growth inhibition compared to the control wells. […]

For data set [4], the system named is HepG-2 cells. The data set can be described thus: Cell cycle analysis by DNA flow cytometry (PI staining). The format is cell-based, human. The following applies: HepG-2, compound at IC50 (0.75 µM), 24 h. As for the experimental part: Based on this promising activity, compound 7 was selected for further evaluation to assess its effect on the cell cycle profile in HepG-2 cells. To evaluate the cell cycle, a biparametric cytofluorimetric analysis was conducted on HepG-2 cells treated with compound 7 at its IC50 concentration for a duration of 24 h. Propidium iodide (PI) was used as the staining agent for this analysis. (Figure 5). […] Similarly, the percentage of cells in the G2/M phase decreased from 11.46% in the control group to 6.4% after treatment with compound 7. In contrast, there was a notable increase in the percentage of cells in the S phase after treatment with Compound 7. […] These findings indicate that the treatment of HepG-2 cells with compound 7 leads to cell cycle arrest specifically in the S phase. This is evident from the decrease in the proportion of cells in the G1 and G2/M phases, accompanied by an increase in the percentage of cells residing in the S phase. Cell cycle arrest is a widely recognized mechanism utilized by anticancer agents to impede the excessive proliferation of cancer cells. By inducing cell cycle arrest, these agents disrupt the normal progression of the cell cycle, preventing cancer cells from dividing and multiplying uncontrollably. This therapeutic strategy helps to halt tumor growth and promotes the effectiveness of cancer treatments. The observed effects of compound 7 on the cell cycle profile of HepG-2 cells are indicative of its potential as an antitumor agent. […] Furthermore, the increase in the percentage of cells in the S phase upon treatment with Compound 7 may indicate DNA damage and activation of DNA repair mechanisms, which can contribute to the observed S phase arrest.
HepG-2 cells were seeded in […] at a density of 3.0 × 10^5 cells per well and incubated at 37°C for 12 h to allow cell attachment and growth. After the initial incubation, the cells were treated with compound 7 at its IC50 concentration dose value for 24 h. […] Flow cytometry analysis measures the fluorescence emitted by the cells stained with PI, which correlates with the DNA content. […]
For orientation: Flow cytometry measures light scatter and fluorescence of single cells or particles in a stream.

The test system of data set [5] is HepG-2 cells. Description: Annexin V-FITC/PI apoptosis assay. The format is cell-based, human. How it is done:
The Annexin V-FITC/PI assay is a well-established flow cytometric method to evaluate the apoptotic potential of bioactive compounds. The assay allows differentiation between apoptotic cells and live cells by using fluorescent dyes that bind to phosphatidylserine (PS) and DNA, respectively ([Galluzzi et al., 2018]; [Pfeffer and Singh, 2018]; [Tong et al., 2022]). In the present study, the assay was performed to explore the apoptotic effect of compound 7 (at its IC50 dose value) on HepG-2 cells. […] The Annexin V-FITC/PI assay is a well-established method to evaluate the apoptotic potential of chemical compounds. Inducing apoptosis is an appealing therapeutic approach for cancer treatment as it is a vital cellular process essential for preserving tissue balance and removing impaired or unnecessary cells. Disruption in the regulation of apoptosis can contribute to various diseases, such as cancer, highlighting its significance. […] The early stage of apoptosis is characterized by the translocation of PS from the inner to the outer leaflet of the plasma membrane, which can be detected by Annexin V-FITC staining. […] Further, the late stage of apoptosis is characterized by DNA fragmentation, which can be detected by PI staining. […] According to these findings, there is a notable connection between the ability of compound 7 to induce programmed cell death in HepG-2 cells and its antiproliferative effects.
The experimental method involved seeding HepG-2 cells at a density of 1.5 × 10^5 cells per well in a 6-well plate and incubating the cells for 12 h to allow for cell attachment and growth. Following this, the cells were treated with compound 7 at its IC50 concentration for 24 h to induce apoptosis. Apoptosis, a programmed cell death process, was detected by staining the cells with Annexin-V conjugated to fluorescein isothiocyanate (FITC) and Propidium Iodide (PI), and the stained cells were analyzed using a FACSCalibur cytometer and Cellquest software (BD Bioscience). Annexin-V is a protein that binds specifically to phosphatidylserine, a phospholipid that is externalized on the outer surface of the plasma membrane during early stages of apoptosis. FITC, a green-fluorescent dye conjugated to Annexin-V, is used to label the apoptotic cells. PI, a red-fluorescent DNA intercalating agent, is used to distinguish between apoptotic and necrotic cells based on their DNA content. The FACSCalibur cytometer is a flow cytometer used to analyze and quantify fluorescently labeled cells. The experimental method likely allowed for the quantification of apoptotic cells by analyzing the Annexin-V-FITC and PI staining patterns using flow cytometry. The results obtained from this method provided information on the induction of apoptosis by compound 7 in HepG-2 cells, further elucidating the mechanism of action of this compound as a potential anticancer agent. To ensure the reliability of the results, the experimental conditions were repeated at least three times, and the cells were exposed to therapeutically effective concentration of the compound, they were treated with compound 7 at a dose corresponding to its IC50 concentration. This ensured that the cells were subjected to an optimal concentration of the compound during the experiment. This experimental method yielded crucial information on the mechanism by which it exerts its anticancer effects.

The target in data set [6] is T1, VEGFR-2 (Homo sapiens, UniProt P35968).
T1 construct: ability to target the VEGFR-2 receptor inHep-G2 cells; endogenous in cells; host or cells: Hep-G2
Description: VEGFR-2 ELISA assay. The class given is cell-based. As for the experimental part:
A 96-well plate was used for the assay, and each well was filled with a specific volume of the tested molecules and standard concentrations. The wells were coated with an immobilized antibody that specifically binds to VEGFR-2. After incubation, the wells were washed to remove unbound molecules, and biotinylated anti-human VEGFR-2 antibody was added to the wells. This biotinylated antibody specifically binds to VEGFR-2 that is captured by the immobilized antibody. Following another round of washing, a solution of conjugated streptavidin, which binds to the biotinylated antibody, was added to the wells. […] During this incubation, the bound conjugated streptavidin transformed the substrate into a colorful product. After terminating the reaction with an inhibitor solution, the optical density of the produced color was instantly determined at 450 nm with a spectrophotometer.
In general terms: ELISA stands for enzyme-linked immunosorbent assay.

For data set [7], the target named is CYP2D6 (Homo sapiens, UniProt P10635).
Description: Human cells, obtained from the American Type Culture Collection (ATCC), were cultivated in RPMI medium (Invitrogen/Life Technologies). The medium was supplemented with 1% penicillin-streptomycin, 10 μg/ml of insulin (Sigma), and to support cell growth and 10% Fetal Bovine Serum (FBS) (Hyclone) viability. […] Cells were seeded into a 96-well plate at a density of 1.2–1.8 × 10,000 cells/well in a volume of 100 μL of complete growth medium. […] Each concentration was tested in triplicate. A control well with only complete growth medium was included as a negative control. […] The culture media was quickly withdrawn, and the cultured cells were rinsed with PBS. […] After the incubation, the fluorescence intensity of the converted product was measured using a FLx800™ Fluorescence Microplate Reader at the excitation wavelength of 390 nm and the emission wavelength of 488 nm. […] The data were analyzed for statistical significance and presented as mean ± standard deviation (SD) from triplicate measurements.

Where two headings read alike, the source gives them in different places.

CYP2D6, sequence (P10635 whole entry): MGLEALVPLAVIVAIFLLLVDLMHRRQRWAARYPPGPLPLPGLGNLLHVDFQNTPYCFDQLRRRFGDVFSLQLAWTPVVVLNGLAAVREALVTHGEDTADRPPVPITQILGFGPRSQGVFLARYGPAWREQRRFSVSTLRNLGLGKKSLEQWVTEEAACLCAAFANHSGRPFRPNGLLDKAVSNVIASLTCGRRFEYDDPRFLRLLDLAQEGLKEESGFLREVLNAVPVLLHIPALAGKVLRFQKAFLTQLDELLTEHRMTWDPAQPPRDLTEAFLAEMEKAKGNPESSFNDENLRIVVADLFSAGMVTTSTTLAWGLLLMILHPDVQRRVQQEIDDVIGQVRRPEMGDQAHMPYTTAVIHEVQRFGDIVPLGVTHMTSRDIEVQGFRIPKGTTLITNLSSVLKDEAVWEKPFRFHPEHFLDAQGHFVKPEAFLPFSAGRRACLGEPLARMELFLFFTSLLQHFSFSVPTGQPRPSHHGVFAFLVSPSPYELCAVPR
T1 sequence (P35968 20-1356): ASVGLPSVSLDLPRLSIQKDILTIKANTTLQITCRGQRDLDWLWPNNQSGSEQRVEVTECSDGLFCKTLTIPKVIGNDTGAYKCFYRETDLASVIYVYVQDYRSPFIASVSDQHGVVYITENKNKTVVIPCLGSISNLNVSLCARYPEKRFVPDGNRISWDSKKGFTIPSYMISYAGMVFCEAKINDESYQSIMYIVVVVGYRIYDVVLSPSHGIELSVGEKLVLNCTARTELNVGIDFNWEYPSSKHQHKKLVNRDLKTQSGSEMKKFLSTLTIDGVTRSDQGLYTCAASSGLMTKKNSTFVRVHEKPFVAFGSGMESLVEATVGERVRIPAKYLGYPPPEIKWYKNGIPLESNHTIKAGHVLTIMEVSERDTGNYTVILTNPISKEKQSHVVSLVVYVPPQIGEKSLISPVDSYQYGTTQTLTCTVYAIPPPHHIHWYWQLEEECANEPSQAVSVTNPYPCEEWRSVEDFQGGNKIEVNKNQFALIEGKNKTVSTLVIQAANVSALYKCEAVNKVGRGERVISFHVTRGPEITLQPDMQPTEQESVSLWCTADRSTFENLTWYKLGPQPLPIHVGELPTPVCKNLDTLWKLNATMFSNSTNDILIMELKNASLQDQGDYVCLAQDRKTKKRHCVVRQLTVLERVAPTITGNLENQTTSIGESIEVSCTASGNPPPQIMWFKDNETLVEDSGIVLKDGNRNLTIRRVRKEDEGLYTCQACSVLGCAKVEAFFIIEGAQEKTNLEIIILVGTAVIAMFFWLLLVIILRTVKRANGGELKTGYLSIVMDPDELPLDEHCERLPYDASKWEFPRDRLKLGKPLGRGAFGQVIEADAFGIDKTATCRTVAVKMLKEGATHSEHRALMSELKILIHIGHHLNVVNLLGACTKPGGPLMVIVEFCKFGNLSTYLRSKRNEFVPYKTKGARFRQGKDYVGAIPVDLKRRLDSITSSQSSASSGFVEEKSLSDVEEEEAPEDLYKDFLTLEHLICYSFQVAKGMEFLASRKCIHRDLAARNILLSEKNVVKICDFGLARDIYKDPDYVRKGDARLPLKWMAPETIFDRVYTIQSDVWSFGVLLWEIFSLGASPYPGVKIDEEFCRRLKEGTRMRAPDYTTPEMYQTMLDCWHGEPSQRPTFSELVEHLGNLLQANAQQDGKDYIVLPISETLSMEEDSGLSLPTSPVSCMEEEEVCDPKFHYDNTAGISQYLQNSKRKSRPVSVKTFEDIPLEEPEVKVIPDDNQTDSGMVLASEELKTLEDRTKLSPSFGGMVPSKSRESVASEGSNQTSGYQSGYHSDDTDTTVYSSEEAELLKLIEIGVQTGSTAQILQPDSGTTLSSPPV

The IC50 is the point on the concentration scale where inhibition reaches its midpoint. For the compound `COc1ccc(-c2cc(-c3cc4ccccc4oc3=O)nc(NC(C)=O)c2C#N)cc1` [Compound 11], the 50% inhibitory concentration (IC50) in data set [1] is 4.5 µM.

The melting point is the temperature of the solid-liquid transition. Compound `COc1cccc2cc(C(=O)Nc3cccc(O)c3)c(=O)oc12` [Compound 3, N-(3-hydroxy)-phenyl 8-methoxycoumarin-3-carboxamide] gave a melting point of 256 °C. Also, in data set [2], half-maximal inhibition (IC50) required 3.81 ± 0.16 µM.

`COc1ccc(Br)c2cc(C(=O)Nc3cccc(OC(C)=O)c3)c(=O)oc12` [Compound 6, N-(3-acetoxy)phenyl 5-bromo-8-methoxycoumarin-3-carboxamide] gave a melting point of 205 °C. This compound had an IC50 in data set [2] of 13.4 ± 0.56 µM.

For the compound `COc1cccc2cc(C(=O)Nc3cccc(O)c3)c(=O)[nH]c12` [Compound 7, N-(3-hydroxy)phenyl 8-methoxy-azacoumarin-3-carboxamide], the IC50 in data set [2] stood at 0.75 ± 0.03 µM. For the same compound, half-maximal inhibition in data set [3] (IC50) was put at 13.7 ± 1.8 µM. The “percentage of cells in the G2/M phase” value in data set [4] (untreated control 11.46%) worked out at 6.4%. The “percentage of cells in the S phase” value in data set [4] (untreated control 42.19%) came out at 54.52%. In addition, the “percentage of cells in the G1 phase” value in data set [4] (untreated control 46.35%) is 39.08%. Besides, in data set [5] (HepG-2, compound at IC50), the “fold increase of early apoptotic cells vs control” value was determined as 45 fold, the “fold increase of late apoptotic cells vs control” value was 73 fold, the “fold increase of necrosis vs control” value worked out at 2.5 fold and the “fold increase of total apoptotic cells vs control” value is given as 23 fold. Moreover, the “percentage of apoptotic cells, late stage” value in data set [5] (HepG-2, compound at IC50 (0.75 µM), 24 h, control 0.21%) was 15.34%. Further, in data set [5] (HepG-2, compound at IC50 (0.75 µM), 24 h, control 0.55%), the “percentage of apoptotic cells, early stage” value is recorded as 24.72%. Besides, the VEGFR2 protein level in data set [6] (Hep-G2 cells, untreated 3,007 pg/mL) was 1,086 pg/mL. Moreover, in data set [6] (summary graph, read-out: Angiogensis inhibtion IC50 (Figure 10) (converted)), the IC50 was 110 µM. Further, in data set [7], inhibition was half-maximal at 110 µM (IC50) and the “fold more potent than standard staurosporin toward CYP2D6” value is listed as 2.1 fold.

`COc1ccc(Br)c2cc(C(=O)Nc3cccc(O)c3)c(=O)oc12` [Compound 4, N-(3-hydroxy)phenyl 5-bromo-8-methoxycoumarin-3-carboxamide] returned a melting point of 289 °C. In addition, the IC50 in data set [2] came to 38.3 ± 1.62 µM.

Regarding `CN[C@@H]1C[C@H]2O[C@@](C)([C@@H]1OC)n1c3ccccc3c3c4c(c5c6ccccc6n2c5c31)C(=O)NC4` [STU, staurosporine, reference compound], the IC50 in data set [7] (human) is 70.3 µg/mL.

Compound `COc1ccc(Br)c2cc(C(=O)Nc3cccc(O)c3)c(=O)[nH]c12` [Compound 8, N-(3-hydroxy)phenyl 5-bromo-8-methoxy-azacoumarin-3-carboxamide] returned a melting point of 255 °C. The IC50 in data set [2] came out at 4.79 ± 0.2 µM.

Values taken from article PMC10436493, “Unveiling the antitumor potential of novel N-(substituted-phenyl)-8-methoxycoumarin-3-carboxamides as dual inhibitors of VEGFR2 kinase and cytochrome P450 for targeted treatment of hepatocellular carcinoma” (Frontiers in Chemistry, 2023).
